Patent publication US20250163056A1, “NONMUSCLE MYOSIN II INHIBITORS” (The University of Florida Research Foundation, Inc., priority 2018, published 2025)

Key:
Bovine cardiac myosin = Bovine cardiac myosin (Bos taurus (Bovine), UniProt Q9BE39); assay: Cardiac muscle myosin II actin-activated ATPase assay (NADH-coupled); format: biochemical; design: key to Ratio CMMII:NMII Ki/EC50: NMII-sel: no Ki value for cardiac myosin II could be determined; the compounds had no detectable inhibitory properties versus the cardiac myosin II; details: for Ki: 300 nM cardiac myosin, 10 μM actin, 25° C., read-out: CMMII KI; for Ratio CMMII:NMII Ki/EC50: cardiac myosin II Ki over nonmuscle myosin II EC50
Sequence of Bovine cardiac myosin (Q9BE39 whole entry): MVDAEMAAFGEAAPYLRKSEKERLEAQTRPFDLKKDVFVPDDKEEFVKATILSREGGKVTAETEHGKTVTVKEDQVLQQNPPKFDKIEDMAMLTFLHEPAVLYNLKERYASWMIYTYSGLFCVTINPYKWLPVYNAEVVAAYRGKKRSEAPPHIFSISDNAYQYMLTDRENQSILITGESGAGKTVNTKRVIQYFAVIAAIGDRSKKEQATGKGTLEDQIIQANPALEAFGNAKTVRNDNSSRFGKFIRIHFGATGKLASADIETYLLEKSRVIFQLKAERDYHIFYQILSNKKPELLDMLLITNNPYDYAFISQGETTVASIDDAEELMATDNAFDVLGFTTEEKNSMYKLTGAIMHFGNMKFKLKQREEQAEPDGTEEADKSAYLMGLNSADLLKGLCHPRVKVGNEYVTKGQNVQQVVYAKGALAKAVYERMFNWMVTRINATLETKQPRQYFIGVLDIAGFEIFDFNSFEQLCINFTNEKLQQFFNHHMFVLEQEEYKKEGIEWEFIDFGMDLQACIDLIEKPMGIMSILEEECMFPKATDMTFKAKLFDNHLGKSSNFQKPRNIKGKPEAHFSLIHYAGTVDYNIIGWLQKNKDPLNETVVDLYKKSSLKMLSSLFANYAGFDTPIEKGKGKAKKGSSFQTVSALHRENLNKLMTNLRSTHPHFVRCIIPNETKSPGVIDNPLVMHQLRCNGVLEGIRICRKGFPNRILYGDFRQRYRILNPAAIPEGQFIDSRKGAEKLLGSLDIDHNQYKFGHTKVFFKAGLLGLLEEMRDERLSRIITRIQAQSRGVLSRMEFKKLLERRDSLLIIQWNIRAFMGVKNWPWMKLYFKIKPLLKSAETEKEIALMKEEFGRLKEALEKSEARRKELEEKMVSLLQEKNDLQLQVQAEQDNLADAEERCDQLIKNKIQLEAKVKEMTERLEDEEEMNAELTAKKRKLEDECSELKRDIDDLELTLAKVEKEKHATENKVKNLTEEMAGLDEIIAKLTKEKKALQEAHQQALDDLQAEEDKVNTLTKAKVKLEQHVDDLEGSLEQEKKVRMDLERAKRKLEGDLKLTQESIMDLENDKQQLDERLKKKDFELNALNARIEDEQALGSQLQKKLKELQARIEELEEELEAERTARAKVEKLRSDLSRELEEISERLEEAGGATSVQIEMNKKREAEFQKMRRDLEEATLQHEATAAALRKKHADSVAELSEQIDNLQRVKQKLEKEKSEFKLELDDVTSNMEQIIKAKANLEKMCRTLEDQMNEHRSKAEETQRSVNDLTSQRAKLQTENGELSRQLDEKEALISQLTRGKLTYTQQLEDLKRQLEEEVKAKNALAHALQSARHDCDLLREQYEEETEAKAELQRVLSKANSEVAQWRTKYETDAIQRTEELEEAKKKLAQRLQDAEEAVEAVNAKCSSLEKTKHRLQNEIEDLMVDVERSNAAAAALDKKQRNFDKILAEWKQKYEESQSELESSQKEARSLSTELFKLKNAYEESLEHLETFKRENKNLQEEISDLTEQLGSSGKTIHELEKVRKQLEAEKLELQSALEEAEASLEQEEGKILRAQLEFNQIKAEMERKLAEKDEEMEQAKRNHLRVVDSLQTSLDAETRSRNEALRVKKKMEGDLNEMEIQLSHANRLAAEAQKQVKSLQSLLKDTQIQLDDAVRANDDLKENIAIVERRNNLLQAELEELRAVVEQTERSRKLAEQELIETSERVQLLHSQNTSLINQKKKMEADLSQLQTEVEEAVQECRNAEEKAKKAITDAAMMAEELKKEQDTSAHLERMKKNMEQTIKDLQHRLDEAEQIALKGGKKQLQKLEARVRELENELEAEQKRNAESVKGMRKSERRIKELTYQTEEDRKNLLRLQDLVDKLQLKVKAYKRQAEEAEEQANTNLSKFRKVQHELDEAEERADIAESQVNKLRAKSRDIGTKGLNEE
Sequence of Bovine cardiac myosin (P85100 whole entry partner): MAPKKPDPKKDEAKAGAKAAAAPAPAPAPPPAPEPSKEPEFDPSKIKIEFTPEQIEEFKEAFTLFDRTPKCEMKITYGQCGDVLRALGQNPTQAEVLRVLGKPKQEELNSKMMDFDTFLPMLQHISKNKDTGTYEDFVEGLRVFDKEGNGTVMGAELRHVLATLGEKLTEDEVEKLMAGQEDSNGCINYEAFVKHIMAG
Sequence of Bovine cardiac myosin (Q3SZE5 whole entry partner): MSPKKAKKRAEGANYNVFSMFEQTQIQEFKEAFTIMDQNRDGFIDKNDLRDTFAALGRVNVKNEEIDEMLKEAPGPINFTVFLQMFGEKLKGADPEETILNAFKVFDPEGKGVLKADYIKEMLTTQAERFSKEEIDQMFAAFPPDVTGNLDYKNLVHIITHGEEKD
Outline: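 NADH-coupled (PK/LDH) assay at 25° C: 300 nM bovine cardiac myosin, 10 μM rabbit F-actin, 1 mM ATP, 1 mM PEP, 220 μM NADH, MOPS pH 7.0, 0.5% DMSO. NADH fluorescence was followed for 30 min; Ki values came from 16-point triplicate data (top 50 uM) fitted to a quadratic one-to-one binding model.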

Rabbit skeletal myosin = assay: Skeletal muscle myosin II actin-activated ATPase assay; format: biochemical; details: 20 nM skeletal muscle myosin II; read-out: SKMMII KI
Outline: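 NADH-coupled (PK/LDH) actin-activated ATPase at 25 °C with 20 nM rabbit skeletal myosin II, 10 μM F-actin, 1 mM ATP, 1 mM PEP, 220 μM NADH in MOPS pH 7.0, MgCl2, EGTA, BSA, DTT, 0.5% DMSO. NADH fluorescence followed 30 min; inhibitory constants from 16-point triplicate curves (top 50 uM), quadratic one-to-one fit.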

[1] = Photostability, percentage remaining undegraded under illumination or in the dark; details: for Photostability 4 hours: percentage remaining undegraded after 4 hours illumination; for Photostability 24 hours: percentage remaining undegraded after 24 hours illumination; for Photostability Dark (24 h): percentage remaining undegraded in the dark

Row | SMILES | Ki (Bovine cardiac myosin) [µM] | Ratio CMMII:NMII Ki/EC50 (Bovine cardiac myosin) | Ki (Rabbit skeletal myosin) [µM] | Photostability 4 hours [1] [%] | Photostability 24 hours [1] [%] | Photostability Dark (24 h) [1] [%]
1 | Cc1cc2c(cc1C)C(=O)[C@]1(O)CCN(c3ccc4nnccc4c3)C1=N2 [BPN-0027241] | 100 | 7.7 | 7.2 | 91.6 | 87.0 | 97.4
2 | COc1ccc2cc(N3CC[C@@]4(O)C(=O)c5cc(C)c(C)cc5N=C34)ccc2n1 [BPN-0027250] | – | NMII-sel | 1 | 45.8 | 2.7 | 70.1
3 | COc1ccc2cc(N3CC[C@@]4(O)C(=O)c5cc(C)ccc5N=C34)ccc2n1 [BPN-0027255] | – | NMII-sel | 0.8 | 82.4 | 42.2 | 98.3
4 | Cc1cc2c(s1)N=C1N(c3ccc(C#N)c(Cl)c3)CC[C@@]1(O)C2=O [BPN-0027257] | 40 | 6.8 | 4.2 | 97.0 | 78.0 | 97.4
5 | Cc1ccc2c(c1)C(=O)[C@]1(O)CCN(c3ccc4nc(C)ccc4c3)C1=N2 [BPN-0027289] | 50 | 29.4 | 1 | 91.9 | 26.3 | 97.0
6 | Cc1ccc2c(c1)C(=O)[C@]1(O)CCN(c3ccc4nccnc4c3)C1=N2 [BPN-0027330] | 80 | 8.0 | 4.2 | 92.7 | 64.6 | >99
7 | Cc1cc(N2CC[C@@]3(O)C(=O)c4cc(C)c(C(F)(F)F)cc4N=C23)on1 [BPN-0027346] | 33 | 6.9 | 2 | 97.7 | 98.7 | 98.1
8 | Cc1ccc2c(c1)C(=O)[C@]1(O)CCN(c3ccc4c(C)noc4c3)C1=N2 [BPN-0027374] | – | NMII-sel | 0.82 | 96.9 | 86.4 | >99
9 | Cc1sc2c(c1C)C(=O)[C@]1(O)CCN(c3ccc4ncccc4c3)C1=N2 [BPN-0027376] | 46 | 7.8 | 6.7 | 90.4 | 2.8 | 97.0
10 | Cc1ccc2c(c1)C(=O)[C@]1(O)CCN(c3ccc4nc(C#N)ccc4c3)C1=N2 [BPN-0027393] | 30 | 5.8 | 3.5 | 95.2 | 83.9 | 97.5
11 | Cc1ccc2c(c1)C(=O)[C@]1(O)CCN(c3ccc4nsnc4c3)C1=N2 [BPN-0027394] | 14 | 3.4 | 1.1 | 92.2 | 57.2 | 98.7
12 | Cc1ccc2c(c1)C(=O)[C@]1(O)CCN(c3ccn4nccc4c3)C1=N2 [BPN-0027396] | 9.5 | 5.3 | 1.1 | 85.5 | 23.5 | >99
13 | Cc1ccc2c(c1)C(=O)[C@]1(O)CCN(c3ccc4cncn4c3)C1=N2 [BPN-0027406] | 200 | 3.8 | 7.5 | 75.7 | 1.6 | >99
14 | Cc1ccc2c(c1)C(=O)[C@]1(O)CCN(c3cnc4sccc4c3)C1=N2 [BPN-0027410] | 25 | 7.4 | 1.6 | 91.5 | 41.8 | >99
15 | Cc1ccc2c(c1)C(=O)[C@]1(O)CCN(c3ccc4sc(C)nc4c3)C1=N2 [BPN-0027411] | 51 | 8.1 | 1.1 | 81.8 | 6.4 | 98.8
16 | Cc1ccc2c(c1)C(=O)[C@]1(O)CCN(c3ccc4c(c3)OCCN4)C1=N2 [BPN-0027412] | 21 | 3.6 | 2.7 | 90.8 | 67.7 | 95.5
17 | Cc1ccc2c(c1)C(=O)[C@]1(O)CCN(c3ccn4ncnc4c3)C1=N2 [BPN-0027441] | 230 | 4.6 | 12 | 97.2 | 71.4 | 91.8
18 | Cc1ccc2c(c1)C(=O)[C@]1(O)CCN(c3cc4ncccc4s3)C1=N2 [BPN-0027468] | – | NMII-sel | 1.2 | 83.3 | 77.5 | 98.3
19 | Cc1ccc2c(c1)C(=O)[C@]1(O)CCN(c3cc4cccnc4s3)C1=N2 [BPN-0027469] | – | NMII-sel | 0.68 | 58.8 | 44.3 | >99
20 | Cc1cc2c(cc1C)C(=O)[C@]1(O)CCN(c3ccn4nccc4c3)C1=N2 [BPN-0027488] | – | NMII-sel | 0.9 | 49.4 | 20.0 | 96.4
21 | Cc1cc2c(cc1C)C(=O)[C@]1(O)CCN(c3cnc4sccc4c3)C1=N2 [BPN-0027489] | 26 | 33.3 | 0.94 | 76.1 | 8.5 | >99
22 | Cc1ccc2cc(N3CC[C@@]4(O)C(=O)c5cc(C)c(C)cc5N=C34)ccc2n1 [BPN-0027490] | – | NMII-sel | 0.41 | 80.8 | 6.8 | 98.5
23 | Cc1nc2cc(N3CC[C@@]4(O)C(=O)c5cc(C)c(C)cc5N=C34)ccc2s1 [BPN-0027491] | 24 | 10.4 | 0.68 | 54.0 | 6.7 | 97.1
24 | Cc1cc2c(cc1C)C(=O)[C@]1(O)CCN(c3ccc4nc(C#N)ccc4c3)C1=N2 [BPN-0027492] | – | NMII-sel | 2.6 | 95.1 | 66.9 | >99
25 | Cc1ccc2c(c1)C(=O)[C@]1(O)CCN(c3ccc4nc(N)ccc4c3)C1=N2 [BPN-0027494] | – | NMII-sel | 4.7 | 63.5 | <1.0 | 88.4
26 | Cc1cc2c(cc1C)C(=O)[C@]1(O)CCN(c3ccc4nnsc4c3)C1=N2 [BPN-0028550] | 70 | 7.5 | 9.4 | 92.7 | 77.6 | 89.4
